Measured values published in ChEMBL document CHEMBL4699575, “Discovery of First-In-Class Potent and Selective Tropomyosin Receptor Kinase Degraders” (J Med Chem, 2020).
Calls of active or inactive are those of the source. The rule behind the calls is not given here.

What was measured:
[1] = molecular target: High affinity nerve growth factor receptor (Homo sapiens, UniProt P04629); assay: Binding affinity to human partial length TRKA expressed in mammalian expression system by kinomescan method
Chain of High affinity nerve growth factor receptor (P04629 whole entry): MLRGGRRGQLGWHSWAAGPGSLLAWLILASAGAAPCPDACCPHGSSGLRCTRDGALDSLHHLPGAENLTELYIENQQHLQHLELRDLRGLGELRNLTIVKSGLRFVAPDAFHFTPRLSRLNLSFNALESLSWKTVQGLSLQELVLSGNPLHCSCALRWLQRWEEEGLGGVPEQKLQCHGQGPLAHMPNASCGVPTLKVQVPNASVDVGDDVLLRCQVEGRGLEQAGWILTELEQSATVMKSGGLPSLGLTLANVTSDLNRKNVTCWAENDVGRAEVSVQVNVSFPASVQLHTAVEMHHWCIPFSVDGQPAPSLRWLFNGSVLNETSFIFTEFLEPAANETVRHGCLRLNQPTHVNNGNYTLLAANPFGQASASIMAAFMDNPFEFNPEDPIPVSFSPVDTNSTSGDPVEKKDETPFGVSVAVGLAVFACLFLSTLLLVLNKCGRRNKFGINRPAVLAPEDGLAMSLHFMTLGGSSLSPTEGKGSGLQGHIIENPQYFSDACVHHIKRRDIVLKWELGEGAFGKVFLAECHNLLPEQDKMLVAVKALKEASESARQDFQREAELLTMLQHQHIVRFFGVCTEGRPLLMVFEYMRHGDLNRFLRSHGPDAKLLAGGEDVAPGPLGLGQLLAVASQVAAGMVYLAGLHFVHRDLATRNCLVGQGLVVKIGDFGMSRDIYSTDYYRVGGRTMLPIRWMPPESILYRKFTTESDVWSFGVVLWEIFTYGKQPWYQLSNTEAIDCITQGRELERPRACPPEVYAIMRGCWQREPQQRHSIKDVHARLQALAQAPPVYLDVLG

[2] = molecular target: BDNF/NT-3 growth factors receptor (Homo sapiens, UniProt Q16620); assay: Binding affinity to human partial length TRKB expressed in mammalian expression system by kinomescan method
Chain of BDNF/NT-3 growth factors receptor (Q16620 whole entry): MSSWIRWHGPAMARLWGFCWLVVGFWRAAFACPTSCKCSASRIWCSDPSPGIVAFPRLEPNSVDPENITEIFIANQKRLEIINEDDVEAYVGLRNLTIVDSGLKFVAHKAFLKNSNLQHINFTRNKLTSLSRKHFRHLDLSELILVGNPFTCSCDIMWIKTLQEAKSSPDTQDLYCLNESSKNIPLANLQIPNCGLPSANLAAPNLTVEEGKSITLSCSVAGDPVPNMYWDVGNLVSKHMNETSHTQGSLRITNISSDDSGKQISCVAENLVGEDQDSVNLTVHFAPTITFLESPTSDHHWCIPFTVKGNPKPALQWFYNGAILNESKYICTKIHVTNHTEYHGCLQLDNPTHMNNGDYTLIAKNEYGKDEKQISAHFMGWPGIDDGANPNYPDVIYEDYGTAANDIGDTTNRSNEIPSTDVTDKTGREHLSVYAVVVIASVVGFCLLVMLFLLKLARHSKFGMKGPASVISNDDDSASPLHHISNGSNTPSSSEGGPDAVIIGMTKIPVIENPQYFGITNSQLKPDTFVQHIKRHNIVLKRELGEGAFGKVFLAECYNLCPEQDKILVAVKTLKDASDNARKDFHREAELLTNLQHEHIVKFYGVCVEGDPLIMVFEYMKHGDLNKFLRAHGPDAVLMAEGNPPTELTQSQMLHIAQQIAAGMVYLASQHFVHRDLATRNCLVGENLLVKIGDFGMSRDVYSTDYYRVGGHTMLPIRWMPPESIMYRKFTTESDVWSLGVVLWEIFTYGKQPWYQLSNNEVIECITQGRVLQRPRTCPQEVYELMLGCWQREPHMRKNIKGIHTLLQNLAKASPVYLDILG

[3] = Binding affinity to human partial length TRKC expressed in mammalian expression system by kinomescan method
KM12 [4] = assay: Effect on GSPT1 expression in human KM12 cells at 30 nM for 6 hrs by immunoblot analysis; format: functional, cell-based
[5] = molecular target: T1, Protein cereblon/High affinity nerve growth factor receptor (Homo sapiens, UniProt P04629+Q96SW2); assay: Induction of CRBN-mediated TRKA degradation in human HEL cells at 30 nM for 6 hrs by immunoblot analysis; format: cell-based
Target sequence in this assay (P04629 33-796 limits assumed): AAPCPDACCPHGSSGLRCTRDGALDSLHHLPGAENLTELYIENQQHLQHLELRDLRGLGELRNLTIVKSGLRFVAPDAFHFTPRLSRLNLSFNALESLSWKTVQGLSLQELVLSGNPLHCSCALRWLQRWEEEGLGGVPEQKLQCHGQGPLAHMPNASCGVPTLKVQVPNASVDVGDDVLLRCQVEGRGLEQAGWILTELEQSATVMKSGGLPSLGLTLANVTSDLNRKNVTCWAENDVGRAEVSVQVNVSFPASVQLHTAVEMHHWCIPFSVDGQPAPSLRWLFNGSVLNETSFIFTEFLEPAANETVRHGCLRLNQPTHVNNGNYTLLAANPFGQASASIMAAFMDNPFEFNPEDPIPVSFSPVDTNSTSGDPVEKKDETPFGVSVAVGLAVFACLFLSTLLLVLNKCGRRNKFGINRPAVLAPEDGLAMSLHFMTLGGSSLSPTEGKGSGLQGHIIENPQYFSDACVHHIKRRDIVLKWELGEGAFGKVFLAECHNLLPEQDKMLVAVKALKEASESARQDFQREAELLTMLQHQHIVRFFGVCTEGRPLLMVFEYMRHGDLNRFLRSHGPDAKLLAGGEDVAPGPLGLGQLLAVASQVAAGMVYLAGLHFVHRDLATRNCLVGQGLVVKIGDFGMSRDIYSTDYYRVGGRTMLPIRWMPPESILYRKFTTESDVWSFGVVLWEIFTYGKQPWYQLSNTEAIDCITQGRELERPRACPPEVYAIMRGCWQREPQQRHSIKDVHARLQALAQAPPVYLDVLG
Target sequence in this assay (Q96SW2 whole entry partner): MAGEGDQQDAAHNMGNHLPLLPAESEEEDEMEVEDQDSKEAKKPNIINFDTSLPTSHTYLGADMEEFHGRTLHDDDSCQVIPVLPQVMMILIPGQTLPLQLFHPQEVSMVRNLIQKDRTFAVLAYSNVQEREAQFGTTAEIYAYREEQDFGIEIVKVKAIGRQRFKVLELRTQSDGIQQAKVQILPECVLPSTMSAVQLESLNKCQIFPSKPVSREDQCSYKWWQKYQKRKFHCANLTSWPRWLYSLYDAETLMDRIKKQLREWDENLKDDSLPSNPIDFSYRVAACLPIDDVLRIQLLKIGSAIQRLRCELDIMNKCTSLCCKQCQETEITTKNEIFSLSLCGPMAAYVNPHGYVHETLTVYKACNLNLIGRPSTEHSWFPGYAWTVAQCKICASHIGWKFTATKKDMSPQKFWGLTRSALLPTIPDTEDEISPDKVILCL

KM12 [6] = assay: Antiproliferative activity against human KM12 cells assessed as reduction in cell viability measured after 3 days by Celltiter-Glo assay; format: functional, cell-based; settings: KM12, 72 h
KM12 [7] = assay: Induction of CRBN-mediated TMP3-TRKA (unknown origin) fusion protein degradation expressed in human KM12 cells at 10 nM for 6 hrs by immunoblot analysis relative to control; format: cell-based
KM12 [8] = assay: Induction of CRBN-mediated TMP3-TRKA (unknown origin) fusion protein degradation expressed in human KM12 cells at 1 nM for 6 hrs by immunoblot analysis relative to control; format: cell-based
KM12 [9] = assay: Induction of CRBN-mediated TMP3-TRKA (unknown origin) fusion protein degradation expressed in human KM12 cells at 0.1 nM for 6 hrs by immunoblot analysis relative to control; format: cell-based
[10] = Induction of CRBN-mediated TMP3-TRKA (unknown origin) fusion protein degradation expressed in human KM12 cells for 6 hrs by immunoblot analysis; format: cell-based; settings: KM12, 6 h
[11] = (§1) Induction of CRBN-mediated TMP3-TRKA (unknown origin) fusion protein degradation expressed in human KM12 cells assessed as inhibition of PLC-gamma1 phosphorylation for 6 hrs by immunoblot analysis; format: cell-based; settings: KM12, 6 h
KM12 [12] = assay: as §1; format: cell-based
KM12 [13] = assay: Induction of CRBN-mediated TMP3-TRKA (unknown origin) fusion protein degradation expressed in human KM12 cells at 30 nM for 6 hrs by immunoblot analysis; format: cell-based
KM12 [14] = assay: Effect on GSPT1 expression in human KM12 cells at 0.04 to 30 nM for 6 hrs by immunoblot analysis; format: functional, cell-based; settings: dose nM 0.04-30, time 6.0 hrs
KM12 [15] = assay: Induction of CRBN-mediated TMP3-TRKA (unknown origin) fusion protein degradation expressed in human KM12 cells at 10 nM for 0.3 hrs by immunoblot analysis; format: cell-based
KM12 [16] = assay: Induction of CRBN-mediated TMP3-TRKA (unknown origin) fusion protein degradation expressed in human KM12 cells assessed as inhibition of PLC-gamma1 phosphorylation at 10 nM for 0.3 hrs by immunoblot analysis; format: cell-based
KM12 [17] = assay: Induction of CRBN-mediated TMP3-TRKA (unknown origin) fusion protein degradation expressed in human KM12 cells at 10 nM for 4 hrs by immunoblot analysis; format: cell-based
KM12 [18] = assay: Induction of CRBN-mediated TMP3-TRKA (unknown origin) fusion protein degradation expressed in human KM12 cells assessed as inhibition of PLC-gamma1 phosphorylation at 10 nM for 4 hrs by immunoblot analysis; format: cell-based
[19] = molecular target: T1, Protein cereblon/High affinity nerve growth factor receptor; assay: Induction of CRBN-mediated TRKA degradation in human HEL cells for 6 hrs by immunoblot analysis; format: cell-based
Target sequence in this assay (P04629 whole entry): as the sequence (P04629 whole entry) above
Target sequence in this assay (Q96SW2 whole entry): as the sequence (Q96SW2 whole entry partner) above

KM12 [20] = assay: Induction of CRBN-mediated AGBL4-TRKB (unknown origin) fusion protein degradation expressed in human KM12 cells at 0.7 to 500 nM for 6 hrs by immunoblot analysis; format: cell-based; settings: dose nM 0.7-500, time 6.0 hrs
KM12 [21] = assay: Induction of CRBN-mediated ETV6-TRKC (unknown origin) fusion protein degradation expressed in human KM12 cells at 0.7 to 500 nM for 6 hrs by immunoblot analysis; format: cell-based; settings: dose nM 0.7-500, time 6.0 hrs
KM12 [22] = assay: Induction of CRBN-mediated TMP3-TRKA (unknown origin) fusion protein degradation expressed in human KM12 cells at 10 nM for 6 hrs pretreated with pomalidomide by immunoblot analysis; format: cell-based
KM12 [23] = assay: Induction of CRBN-mediated TMP3-TRKA (unknown origin) fusion protein degradation expressed in human KM12 cells at 10 nM for 6 hrs pretreated with MG-132 by immunoblot analysis; format: cell-based
KM12 [24] = assay: Induction of CRBN-mediated TMP3-TRKA (unknown origin) fusion protein degradation expressed in human KM12 cells at 10 nM for 6 hrs pretreated with bortezomib by immunoblot analysis; format: cell-based
KM12 [25] = assay: Induction of CRBN-mediated TMP3-TRKA (unknown origin) fusion protein degradation expressed in human KM12 cells at 10 nM for 6 hrs pretreated with MLN4924 by immunoblot analysis; format: cell-based
[26] = molecular target: T2, Tropomyosin alpha-3 chain/High affinity nerve growth factor receptor (Homo sapiens) (UniProt P04629+P06753); assay: Induction of TMP3-TRKA (unknown origin) fusion protein degradation expressed in human KM12 cells transfected with siCRBN-1 at 0.1 to 10 nM for 6 hrs by immunoblot analysis; format: cell-based; settings: dose nM 0.1-10, time 6.0 hrs
T2 sequence (P04629 whole entry, looked up, the tested form may be a part): as the sequence (P04629 whole entry) above
T2 sequence (P06753 whole entry, looked up, the tested form may be a part): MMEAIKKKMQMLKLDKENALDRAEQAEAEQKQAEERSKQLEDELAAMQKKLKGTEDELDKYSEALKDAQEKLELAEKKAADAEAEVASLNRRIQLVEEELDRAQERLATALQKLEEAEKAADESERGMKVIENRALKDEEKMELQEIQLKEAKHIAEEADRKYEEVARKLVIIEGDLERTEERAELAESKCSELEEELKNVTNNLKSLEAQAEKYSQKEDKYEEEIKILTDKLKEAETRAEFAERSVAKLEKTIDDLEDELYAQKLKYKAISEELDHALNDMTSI

[27] = molecular target: T2, Tropomyosin alpha-3 chain/High affinity nerve growth factor receptor (Homo sapiens); assay: Induction of TMP3-TRKA (unknown origin) fusion protein degradation expressed in human KM12 cells transfected with siCRBN-2 at 0.1 to 10 nM for 6 hrs by immunoblot analysis; format: cell-based; settings: dose nM 0.1-10, time 6.0 hrs
[28] = Cmax in ICR mouse at 10 mg/kg, ip measured for 1 hr; format: ADME, organism-based; set-up: route intraperitoneal, dose 10 mg/kg, time 1 hrs; settings: in vivo
[29] = Plasma concentration in ICR mouse at 10 mg/kg, ip measured at 8 hrs; format: ADME, organism-based
[30] = Half life in ICR mouse at 10 mg/kg, ip measured upto 8 hrs; format: ADME, organism-based; settings: in vivo

CN1C(=O)CCC(N2C(=O)c3cccc(NCCOCCC(=O)N4CCN(c5cccc(-c6cnc7ccc(N8CCC[C@@H]8c8cccc(F)c8)nn67)n5)CC4)c3C2=O)C1=O (some centres undefined)
Kd [1]: 0.88 nM | Kd [2]: 59.8 nM | Kd [3]: 4.8 nM | Activity (KM12 [4]): inactive | Activity [5]: inactive | IC50 (KM12 [6]): 28 nM

CN1C(=O)CCC(N2C(=O)c3cccc(NCCCCCC(=O)N4CCN(c5cccc(-c6cnc7ccc(N8CCC[C@@H]8c8cccc(F)c8)nn67)n5)CC4)c3C2=O)C1=O (some centres undefined)
Kd [1]: 2.9 nM | Kd [2]: 187 nM | Kd [3]: 24.2 nM | Activity (KM12 [4]): inactive | Activity [5]: inactive | IC50 (KM12 [6]): 2.9 nM

O=C1CCC(N2C(=O)c3cccc(NCC(=O)N4CCN(c5cccc(-c6cnc7ccc(N8CCC[C@@H]8c8cccc(F)c8)nn67)n5)CC4)c3C2=O)C(=O)N1 (some centres undefined)
Activity (KM12 [7]): 93% | Activity (KM12 [8]): 45% | Activity (KM12 [9]): 15%

O=C1CCC(N2C(=O)c3cccc(NCCCCCCCC(=O)N4CCN(c5cccc(-c6cnc7ccc(N8CCC[C@@H]8c8cccc(F)c8)nn67)n5)CC4)c3C2=O)C(=O)N1 (some centres undefined)
Activity (KM12 [7]): 83% | Activity (KM12 [8]): 21% | Activity (KM12 [9]): 20%

O=C1CCC(N2C(=O)c3cccc(NCCCCCC(=O)N4CCN(c5cccc(-c6cnc7ccc(N8CCC[C@@H]8c8cccc(F)c8)nn67)n5)CC4)c3C2=O)C(=O)N1 (some centres undefined)
Kd [1]: 2.1 nM | Activity (KM12 [7]): 96% | Activity (KM12 [8]): 65% | Activity (KM12 [9]): 18% | Kd [2]: 112 nM | Kd [3]: 18 nM | DC50 [10]: 0.48 nM | IC50 [11]: 30 nM | inhibition (KM12 [12]): Dose-dependent effect | Activity (KM12 [13]): Active | Activity (KM12 [14]): inactive | Activity (KM12 [15]): Active | inhibition (KM12 [16]): Active | Activity (KM12 [17]): Active | inhibition (KM12 [18]): Active | DC50 [19]: 1.26 nM | Activity (KM12 [20]): Active | Activity (KM12 [21]): Active | Activity (KM12 [22]): inactive | Activity (KM12 [23]): inactive | Activity (KM12 [24]): inactive | Activity (KM12 [25]): inactive | Activity [26]: inactive | Activity [27]: inactive | IC50 (KM12 [6]): 5.4 nM | Cmax [28]: 2050 nM | concentration at 8 h [29]: 14.8 nM | half-life [30]: 54 min

O=C1CCC(N2C(=O)c3cccc(NCCCC(=O)N4CCN(c5cccc(-c6cnc7ccc(N8CCC[C@@H]8c8cccc(F)c8)nn67)n5)CC4)c3C2=O)C(=O)N1 (some centres undefined)
Activity (KM12 [7]): 94% | Activity (KM12 [8]): 63% | Activity (KM12 [9]): 12%

O=C1CCC(N2C(=O)c3cccc(NCCC(=O)N4CCN(c5cccc(-c6cnc7ccc(N8CCC[C@@H]8c8cccc(F)c8)nn67)n5)CC4)c3C2=O)C(=O)N1 (some centres undefined)
Activity (KM12 [7]): 65% | Activity (KM12 [8]): 15% | Activity (KM12 [9]): 9%

O=C1CCC(N2C(=O)c3cccc(NCCOCCC(=O)N4CCN(c5cccc(-c6cnc7ccc(N8CCC[C@@H]8c8cccc(F)c8)nn67)n5)CC4)c3C2=O)C(=O)N1 (some centres undefined)
Kd [1]: 1 nM | Activity (KM12 [7]): 96% | Activity (KM12 [8]): 82% | Activity (KM12 [9]): 46% | Kd [2]: 28 nM | Kd [3]: 4.2 nM | DC50 [10]: 0.36 nM | IC50 [11]: 30 nM | inhibition (KM12 [12]): Dose-dependent effect | Activity (KM12 [13]): Active | Activity (KM12 [14]): inactive | Activity (KM12 [15]): Active | inhibition (KM12 [16]): Active | Activity (KM12 [17]): Active | inhibition (KM12 [18]): Active | DC50 [19]: 2.23 nM | Activity (KM12 [20]): Active | Activity (KM12 [21]): Active | Activity (KM12 [22]): inactive | Activity (KM12 [23]): inactive | Activity (KM12 [24]): inactive | Activity (KM12 [25]): inactive | IC50 (KM12 [6]): 52 nM | Cmax [28]: 1640 nM | concentration at 8 h [29]: 12.4 nM

O=C1CCC(N2C(=O)c3cccc(NCCCCCCC(=O)N4CCN(c5cccc(-c6cnc7ccc(N8CCC[C@@H]8c8cccc(F)c8)nn67)n5)CC4)c3C2=O)C(=O)N1 (some centres undefined)
Activity (KM12 [7]): 90% | Activity (KM12 [8]): 23% | Activity (KM12 [9]): 21%

O=C1CCC(N2C(=O)c3cccc(NCCOCCOCCOCCC(=O)N4CCN(c5cccc(-c6cnc7ccc(N8CCC[C@@H]8c8cccc(F)c8)nn67)n5)CC4)c3C2=O)C(=O)N1 (some centres undefined)
Activity (KM12 [7]): 86% | Activity (KM12 [8]): 28% | Activity (KM12 [9]): 22%

O=C1CCC(N2C(=O)c3cccc(NCCOCCOCCOCCOCCC(=O)N4CCN(c5cccc(-c6cnc7ccc(N8CCC[C@@H]8c8cccc(F)c8)nn67)n5)CC4)c3C2=O)C(=O)N1 (some centres undefined)
Activity (KM12 [7]): 91% | Activity (KM12 [8]): 40% | Activity (KM12 [9]): 22%

O=C1CCC(N2C(=O)c3cccc(NCCCCC(=O)N4CCN(c5cccc(-c6cnc7ccc(N8CCC[C@@H]8c8cccc(F)c8)nn67)n5)CC4)c3C2=O)C(=O)N1 (some centres undefined)
Activity (KM12 [7]): 93% | Activity (KM12 [8]): 69% | Activity (KM12 [9]): 20%

O=C1CCC(N2C(=O)c3cccc(NCCOCCOCCC(=O)N4CCN(c5cccc(-c6cnc7ccc(N8CCC[C@@H]8c8cccc(F)c8)nn67)n5)CC4)c3C2=O)C(=O)N1 (some centres undefined)
Activity (KM12 [7]): 95% | Activity (KM12 [8]): 56% | Activity (KM12 [9]): 30%

OC1CCN(c2cc(-c3cccc(-c4cnc5ccc(N6CCC[C@@H]6c6cccc(F)c6)nn45)n3)ccn2)CC1
Kd [1]: 0.81 nM | Activity (KM12 [7]): 52% | Activity (KM12 [8]): 16% | Activity (KM12 [9]): 6% | Kd [2]: 22.7 nM | Kd [3]: 5.4 nM | IC50 (KM12 [6]): 16 nM
